Experiments:
RsTSPOW38C = biological target: T1, RsTSPOW38C (Cereibacter sphaeroides, UniProt Q9RFC8, W38C); experiment: Tryptophan fluorescence quenching binding assay, purified RsTSPOW38C mutant; parameters: species or system Rhodobacter sphaeroides; conditions: for decrease in binding affinity by the W38C mutation: RsTSPOW38C versus wild-type RsTSPO
T1 sequence (Q9RFC8 1-158 W38C): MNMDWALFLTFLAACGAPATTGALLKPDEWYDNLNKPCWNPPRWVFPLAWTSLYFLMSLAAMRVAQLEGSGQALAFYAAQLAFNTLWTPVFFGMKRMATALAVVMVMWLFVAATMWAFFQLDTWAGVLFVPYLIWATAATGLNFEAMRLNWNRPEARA

RsTSPO [1] = biological target: T2, RsTSPO (Cereibacter sphaeroides, UniProt Q9RFC8); conditions: cited from earlier work
T2 sequence (Q9RFC8 1-158): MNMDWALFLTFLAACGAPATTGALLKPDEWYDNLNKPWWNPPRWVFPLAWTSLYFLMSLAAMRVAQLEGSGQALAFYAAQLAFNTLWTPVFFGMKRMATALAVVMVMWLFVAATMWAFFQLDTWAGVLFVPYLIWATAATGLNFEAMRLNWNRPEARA

RsTSPO [2] = biological target: T2, RsTSPO; experiment: Tryptophan fluorescence quenching binding assay, purified wild-type RsTSPO; parameters: species or system Rhodobacter sphaeroides; conditions: for quenching of the tryptophan fluorescence: compared to that of PpIX
RsTSPO [3] = biological target: T2, RsTSPO; experiment: Competition binding assay of PpIX, PK11195 and cholesterol with purified RsTSPO; parameters: species or system Rhodobacter sphaeroides
SEC = biological target: the molecule itself; experiment: SEC

CCC(C)N(C)C(=O)c1cc2ccccc2c(-c2ccccc2Cl)n1 (stereo not drawn) [PK11195]
decrease in binding affinity by the W38C mutation (RsTSPOW38C): 3 fold | binding of PK11195 to wild-type RsTSPO (RsTSPO [1]): no binding affinity above background

C=CC1=C(C)c2cc3[nH]c(cc4nc(cc5[nH]c(cc1n2)c(C)c5CCC(=O)O)C(CCC(=O)O)=C4C)c(C)c3C=C [PpIX, Protoporphyrin IX]
maximal quenching of tryptophan fluorescence (RsTSPO [2]; Rs- and HsTSPO, 290 to 400 nm): ~100% | decrease in binding affinity by the W38C mutation (RsTSPOW38C): 6 fold | increase in the Kd of PpIX (RsTSPO [3]; RsTSPO preincubated with 20 μM PK11195): ~3 fold | increase in the Kd of PpIX (RsTSPO [3]; RsTSPO preincubated with 20 μM PK11195 and 50 μM cholesterol together): ~4 fold

NCC(=O)CCC(=O)O [ALA, δ-aminolevulinic acid]
quenching of the tryptophan fluorescence (RsTSPO [2]): only a small quenching

CC(C)CCC[C@@H](C)[C@H]1CC[C@H]2[C@@H]3CC=C4C[C@@H](O)CC[C@]4(C)[C@H]3CC[C@]12C [Cholesterol]
Kd (RsTSPO [2]; Kapp to RsTSPO, estimated from half-maximal quenching): ~80 µM | Kd (RsTSPOW38C; Kapp to RsTSPOW38C, estimated from half-maximal quenching): ~200 µM

C[C@H](CCC(=O)O)[C@H]1CC[C@H]2[C@@H]3[C@@H](O)C[C@@H]4C[C@H](O)CC[C@]4(C)[C@H]3CC[C@]12C [ursodeoxycholate]
affinity for RsTSPO (RsTSPO [2]): no detectable affinity | quenching of the tryptophan fluorescence (RsTSPO [2]): only a small quenching

B1: RsTSPOW38C, W38C mutant of Translocator Protein 18 kDa from Rhodobacter sphaeroides (natural protein, UniProt Q9RFC8 1-158, looked up)
chain: MNMDWALFLTFLAACGAPATTGALLKPDEWYDNLNKPCWNPPRWVFPLAWTSLYFLMSLAAMRVAQLEGSGQALAFYAAQLAFNTLWTPVFFGMKRMATALAVVMVMWLFVAATMWAFFQLDTWAGVLFVPYLIWATAATGLNFEAMRLNWNRPEARA
binding result (SEC): binds
